According to patent publication US20220120736A1, “METHODS AND ASSAYS FOR MODULATING GENE TRANSCRIPTION BY MODULATING CONDENSATES” (Whitehead Institute for Biomedical Research, priority 2018, published 2022):

Experiments:
Assay type in all cases: cell-based
[1] = target: T1, OCT4 (FKBP-tagged) (Mus musculus, UniProt P20263+Q8C7D2); test: ChIP-seq after OCT4 degradation in OCT4-FKBP ESCs; details: dTag 24 hours versus DMSO
T1 construct: an ESC line bearing endogenous knock-in of DNA encoding the FKBP protein fused to OCT4; HA (C); endogenous in cells; host or cells: V6.5 mouse ES cells (Med1-mEGFP background), homozygous Oct4-FKBP knock-in
T1 sequence (P20263 with tags, fused parts or gaps): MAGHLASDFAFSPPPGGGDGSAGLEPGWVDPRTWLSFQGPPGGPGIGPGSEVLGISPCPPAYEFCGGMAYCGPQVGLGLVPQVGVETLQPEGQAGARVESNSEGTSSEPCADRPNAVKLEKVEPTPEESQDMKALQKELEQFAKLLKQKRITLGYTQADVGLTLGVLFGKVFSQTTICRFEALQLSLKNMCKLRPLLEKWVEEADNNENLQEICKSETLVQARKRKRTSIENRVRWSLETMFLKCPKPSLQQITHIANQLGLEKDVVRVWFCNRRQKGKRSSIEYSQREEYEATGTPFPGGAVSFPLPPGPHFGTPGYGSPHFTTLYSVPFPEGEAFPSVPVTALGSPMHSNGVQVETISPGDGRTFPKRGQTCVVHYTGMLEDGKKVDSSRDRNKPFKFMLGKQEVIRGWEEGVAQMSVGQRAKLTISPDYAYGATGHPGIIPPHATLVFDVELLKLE
T1 sequence (Q8C7D2 whole entry, the tested form may be a part): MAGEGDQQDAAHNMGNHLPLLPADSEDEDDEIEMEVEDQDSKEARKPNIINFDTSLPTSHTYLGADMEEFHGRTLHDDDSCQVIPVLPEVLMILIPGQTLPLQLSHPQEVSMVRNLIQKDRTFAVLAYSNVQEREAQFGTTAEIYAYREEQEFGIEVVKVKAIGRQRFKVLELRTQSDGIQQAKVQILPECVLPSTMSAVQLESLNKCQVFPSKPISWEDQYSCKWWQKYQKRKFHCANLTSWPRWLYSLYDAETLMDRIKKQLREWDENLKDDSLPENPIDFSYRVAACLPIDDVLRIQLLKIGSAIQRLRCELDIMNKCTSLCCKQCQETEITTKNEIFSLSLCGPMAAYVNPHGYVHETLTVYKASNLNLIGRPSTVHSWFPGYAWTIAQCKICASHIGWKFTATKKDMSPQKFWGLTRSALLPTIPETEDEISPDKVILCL
T1 sequence (Q3U1J4 whole entry partner, the tested form may be a part): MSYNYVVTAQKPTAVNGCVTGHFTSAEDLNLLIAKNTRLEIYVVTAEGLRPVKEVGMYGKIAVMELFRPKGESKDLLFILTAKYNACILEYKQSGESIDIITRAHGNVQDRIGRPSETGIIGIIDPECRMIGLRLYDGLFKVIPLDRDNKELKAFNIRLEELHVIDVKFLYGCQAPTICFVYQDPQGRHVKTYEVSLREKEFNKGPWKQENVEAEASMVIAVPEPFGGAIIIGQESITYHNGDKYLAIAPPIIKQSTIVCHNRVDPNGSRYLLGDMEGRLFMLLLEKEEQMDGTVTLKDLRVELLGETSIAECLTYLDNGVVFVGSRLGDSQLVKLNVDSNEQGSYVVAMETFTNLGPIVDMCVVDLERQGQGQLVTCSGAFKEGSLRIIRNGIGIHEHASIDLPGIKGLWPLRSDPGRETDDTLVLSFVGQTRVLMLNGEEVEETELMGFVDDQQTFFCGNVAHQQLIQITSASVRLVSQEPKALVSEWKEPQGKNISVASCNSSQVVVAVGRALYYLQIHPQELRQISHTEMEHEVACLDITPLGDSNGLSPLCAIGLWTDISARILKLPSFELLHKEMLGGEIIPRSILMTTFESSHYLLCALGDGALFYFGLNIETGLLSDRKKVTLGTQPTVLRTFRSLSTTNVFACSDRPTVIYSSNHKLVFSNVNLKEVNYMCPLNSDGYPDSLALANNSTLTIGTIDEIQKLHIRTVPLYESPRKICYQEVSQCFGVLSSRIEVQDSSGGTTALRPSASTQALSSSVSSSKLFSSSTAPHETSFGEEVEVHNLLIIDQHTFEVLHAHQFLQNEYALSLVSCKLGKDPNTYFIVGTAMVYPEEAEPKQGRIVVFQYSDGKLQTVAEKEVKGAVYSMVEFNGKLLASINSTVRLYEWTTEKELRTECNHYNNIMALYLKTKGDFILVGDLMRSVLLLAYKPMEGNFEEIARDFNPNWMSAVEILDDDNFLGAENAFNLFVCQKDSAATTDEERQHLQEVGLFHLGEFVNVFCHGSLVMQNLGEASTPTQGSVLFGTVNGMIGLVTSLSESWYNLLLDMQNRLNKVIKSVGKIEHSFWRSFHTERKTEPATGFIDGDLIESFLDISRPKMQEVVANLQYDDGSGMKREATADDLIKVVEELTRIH
Description: mES were grown to 80% confluence in 2i media. 1% formaldehyde in PBS was used for crosslinking of cells for 15 minutes, followed by quenching with Glycine at a final concentration of 125 mM on ice. Cells were washed with cold PBS and harvested by scraping cells in cold PBS. Collected cells were pelleted at 1000 g for 3 minutes at 4° C., flash frozen in liquid nitrogen and stored at −80° C. All buffers contained freshly prepared cOmplete protease inhibitors (Roche, 11873580001). […] The pellet was resuspended in sonication buffer (20 mM Tris-HCl pH 8.0, 150 mM NaCl, 2 mM EDTA pH 8.0, 0.1% SDS, and 1% Triton X-100, 1 3 protease inhibitors) and then sonicated on a Misonix 3000 sonicator for 10 cycles at 30 s each on ice (18-21 W) with 60 s on ice between cycles. Sonicated lysates were cleared once by centrifugation at 16,000 rcf. for 10 minutes at 4° C. Input material was reserved and the remainder was incubated overnight at 4° C. with magnetic beads bound with antibody (Table S4) to enrich for DNA fragments bound by the indicated factor. […]
ChIP-Seq data were aligned to the mm9 version of the mouse reference genome using bowtie with parameters -k 1 -m 1 -best and -l set to read length. […]

[2] = tested on: mutant (Y537S) and mutant (D538G) ER activation domain; test: Lac array assay in U2OS cells, mutant ER fusions; details: Y537S and D538G mutants, presence versus absence of estrogen
Excerpt: A Lac binding domain-CFP-ER activation domain (ER) fusion protein, Lac binding domain-CFP-mutant (Y537S) ER activation domain fusion protein, or Lac binding domain-CFP-ER mutant (D538G) activation domain fusion protein was introduced into U2OS cells bearing the Lac operon array. […] Same experimental conditions as FIG. 39.
Constructs were assembled by NEB HIFI cloning in pSV2 mammalian expression vector containing an SV40 promoter driving expression of a CFP-LacI fusion protein. The activation domains and mutant activation domains of […] were fused by the c-terminus to this recombinant protein, joined by the linker sequence […] (SEQ ID NO: 17). U2OS-268 cells containing a stably integrated array of ˜51,000 Lac-repressor binding sites (a gift of the Spector laboratory) were transfected using lipofectamine 3000 (Thermofisher L3000015). 24 hours after transfection, cells were plated on fibronectin-coated glass coverslips. After 24 hours on glass coverslips, cells were fixed for immunofluorescence with a MED1 antibody (Table S4) as described above and imaged, by spinning disk confocal microscopy.

[3] = tested on: ER LBD (GAL4 DNA-binding domain fusion) in HEK293T cells; test: GAL4 transactivation assay; details: elevated MED1 levels; 10 nM Tamoxifen, 24 hours
Excerpt: (SEQ ID NO: 14). […] For high MED1 conditions, a construct with a mammalian expression vector containing a PGK promoter driving the expression of MED1 fused to GFP was co-transfected.

SMILES: CC[C@H](C(=O)N1CCCC[C@H]1C(=O)O[C@H](CCc1ccc(OC)c(OC)c1)c1ccccc1OCC(=O)NCCCCCCCCNc1ccc2c(c1)C(=O)N(C1CCC(=O)NC1=O)C2=O)c1cc(OC)c(OC)c(OC)c1 (stereo partly shown) [dTag]
- OCT4 and MED1 occupancy at enhancers (SEs versus TEs) [1]: reduction of OCT4 and MEM occupancy at enhancers, with the most profound effects occurring at SEs

SMILES: C[C@]12CC[C@@H]3c4ccc(O)cc4CC[C@H]3[C@@H]1CC[C@@H]2O [estrogen, B-Estradiol]
- condensate formation, CFP signal of fusion protein [2]: did not significantly affect condensate formation
- condensate formation, mediator immunofluorescence [2]: did not significantly affect condensate formation

SMILES: CC/C(=C(\c1ccccc1)c1ccc(OCCN(C)C)cc1)c1ccccc1 [tamoxifen]
- GAL4 transactivation with tamoxifen-bound ER [3]: showed activation
